Experimental data: patent publication US12569452B2, “Ophthalmic compositions comprising F6H8” (NOVALIQ GMBH, priority 2017, dated 2026)

Test: Ocular tissue distribution after multiple topical ocular doses of 14C-F6H8, liquid scintillation counting
Type: in vivo, female Dutch Belted rabbits
Conditions: for Mean concentration of radioactivity, Conjunctiva (bulbar) / Mean concentration of radioactivity, Conjunctiva (palpebral) / Mean concentration of radioactivity, Cornea / Mean concentration of radioactivity, Lacrimal gland (accessory) / Mean concentration of radioactivity, Lacrimal gland (main) / Mean concentration of radioactivity, Meibomian glands / Mean concentration of radioactivity, Sclera (anterior) / Mean concentration of radioactivity, Tears: multiple dose (nine doses)
Procedure: Animals are not fasted prior to dose administration. All animals receive single 35 μL-drops of the dose formulation in each eye, with the right eye dosed first. All collection times are based on the time of dosing of the second (left) eye for the last dose, as applicable.
After the dose is administered, the eye is allowed to close naturally. Each animal is then restrained for approximately 1 minute to prevent rubbing of the eyes.
Tears and Ocular Tissue Collection: Tears are collected from two animals per group per time point at 0.25, 0.5, 1, 2, 4, 8, and 24 hours post-dose following the single dose or the last dose of the multiple dose scheme. Tears are collected using Tear Flo Test (TFT) strips that were dye free. One strip of paper is used for each eye for each time point. Following collection, the tube containing the strip is placed on dry ice or stored at approximately −70° C. until analysed.
At the time of sacrifice, both eyes are enucleated and ocular tissues including Aqueous humour, Conjunctiva (bulbar), Conjunctiva (palpebral), Lacrimal gland (accessory), Lacrimal gland (main), Meibomian glands (tarsal plate), Choroid-Retinal pigmented epithelium (Choroid-RPE), Cornea, Iris-ciliary body (ICB), Retina, Sclera (anterior), Sclera (posterior), Vitreous humour are collected.
Radioanalysis: All samples are analyzed for radioactivity in a Model 2900TR liquid scintillation counter (Packard Instrument Company) for at least 5 minutes or 100,000 counts, utilizing Ultima Gold XR or Hionic Fluor scintillation cocktails (Perkin Elmer). Each sample is homogenized before radioanalysis, unless the entire sample is used for analysis. All samples are analyzed in duplicate if sample size allows.
For Conjunctiva (bulbar and palpebral), Cornea, Lacrimal gland (main), Meibomian glands, Retina, and Sclera (anterior and posterior), each sample is digested in 2M sodium hydroxide in ethanol (80:20, v:v) and maintained at room temperature or in an oven set no higher than 30° C. until dissolved. Scintillation cocktail is added, and the samples are shaken and analyzed directly by LSC.
For Lacrimal gland (accessory), each sample is digested in 2M sodium hydroxide in ethanol (80:20, v:v) and maintained at room temperature or in an oven set no higher than 30° C. until dissolved. The sample is homogenized by mixing and duplicate weighed aliquots are analyzed directly by LSC.
For Tears, at least 10 mL of Ultima Gold XR scintillation cocktail is added, and the samples are shaken and analyzed by LSC.
Multiple topical ocular administration: The rabbits receive twice daily doses (approximately 12 hours apart±20 minutes) of 35 μl ^14C—F6H8 administered to both eyes for four consecutive days, and on the fifth day receive a single dose in the morning to both eyes (a total of nine doses). The administered dose level at each dosing occasion is approximately 47 mg/eye, equivalent to […]. Following the last dose on Study Day 5, two animals per time point are sacrificed at 0.25, 0.5, 1, 2, 4, 8, and 24 hours post-dose in a sparse sampling profile. Ocular tissues (including tears collected prior to sacrifice) are collected from all animals at sacrifice.

[1] = multiple dose, between 0.25 and 4 hours post-dose

## ^14C-1-Perfluorohexyloctane [^14C-F6H8]
0.25 h after last dose
  Mean concentration of radioactivity, Conjunctiva (bulbar): 8290 ng Equivalents ^14C-F6H8/g
  Mean concentration of radioactivity, Conjunctiva (palpebral): 14000 ng Equivalents ^14C-F6H8/g
  Mean concentration of radioactivity, Cornea: 20600 ng Equivalents ^14C-F6H8/g
  Mean concentration of radioactivity, Lacrimal gland (accessory): 7120 ng Equivalents ^14C-F6H8/g
  Mean concentration of radioactivity, Lacrimal gland (main): 7090 ng Equivalents ^14C-F6H8/g
  Mean concentration of radioactivity, Meibomian glands: 222000 ng Equivalents ^14C-F6H8/g
  Mean concentration of radioactivity, Sclera (anterior): 3550 ng Equivalents ^14C-F6H8/g
  Mean concentration of radioactivity, Tears: 2330000 ng Equivalents ^14C-F6H8/g
0.5 h after last dose
  Mean concentration of radioactivity, Conjunctiva (bulbar): 5280 ng Equivalents ^14C-F6H8/g
  Mean concentration of radioactivity, Conjunctiva (palpebral): 11900 ng Equivalents ^14C-F6H8/g
  Mean concentration of radioactivity, Cornea: 21000 ng Equivalents ^14C-F6H8/g
  Mean concentration of radioactivity, Lacrimal gland (accessory): 8190 ng Equivalents ^14C-F6H8/g
  Mean concentration of radioactivity, Lacrimal gland (main): 8140 ng Equivalents ^14C-F6H8/g
  Mean concentration of radioactivity, Meibomian glands: 145000 ng Equivalents ^14C-F6H8/g
  Mean concentration of radioactivity, Sclera (anterior): 2650 ng Equivalents ^14C-F6H8/g
  Mean concentration of radioactivity, Tears: 872000 ng Equivalents ^14C-F6H8/g
1 h after last dose
  Mean concentration of radioactivity, Conjunctiva (bulbar): 4440 ng Equivalents ^14C-F6H8/g
  Mean concentration of radioactivity, Conjunctiva (palpebral): 11300 ng Equivalents ^14C-F6H8/g
  Mean concentration of radioactivity, Cornea: 27600 ng Equivalents ^14C-F6H8/g
  Mean concentration of radioactivity, Lacrimal gland (accessory): 4770 ng Equivalents ^14C-F6H8/g
  Mean concentration of radioactivity, Lacrimal gland (main): 4610 ng Equivalents ^14C-F6H8/g
  Mean concentration of radioactivity, Meibomian glands: 92900 ng Equivalents ^14C-F6H8/g
  Mean concentration of radioactivity, Sclera (anterior): 3920 ng Equivalents ^14C-F6H8/g
  Mean concentration of radioactivity, Tears: 742000 ng Equivalents ^14C-F6H8/g
2 h after last dose
  Mean concentration of radioactivity, Conjunctiva (bulbar): 3970 ng Equivalents ^14C-F6H8/g
  Mean concentration of radioactivity, Conjunctiva (palpebral): 7510 ng Equivalents ^14C-F6H8/g
  Mean concentration of radioactivity, Cornea: 15900 ng Equivalents ^14C-F6H8/g
  Mean concentration of radioactivity, Lacrimal gland (accessory): 5140 ng Equivalents ^14C-F6H8/g
  Mean concentration of radioactivity, Lacrimal gland (main): 5040 ng Equivalents ^14C-F6H8/g
  Mean concentration of radioactivity, Meibomian glands: 100000 ng Equivalents ^14C-F6H8/g
  Mean concentration of radioactivity, Sclera (anterior): 2080 ng Equivalents ^14C-F6H8/g
  Mean concentration of radioactivity, Tears: 832000 ng Equivalents ^14C-F6H8/g
4 h after last dose
  Mean concentration of radioactivity, Conjunctiva (bulbar): 3840 ng Equivalents ^14C-F6H8/g
  Mean concentration of radioactivity, Conjunctiva (palpebral): 6920 ng Equivalents ^14C-F6H8/g
  Mean concentration of radioactivity, Cornea: 17500 ng Equivalents ^14C-F6H8/g
  Mean concentration of radioactivity, Lacrimal gland (accessory): 9280 ng Equivalents ^14C-F6H8/g
  Mean concentration of radioactivity, Lacrimal gland (main): 8890 ng Equivalents ^14C-F6H8/g
  Mean concentration of radioactivity, Meibomian glands: 70300 ng Equivalents ^14C-F6H8/g
  Mean concentration of radioactivity, Sclera (anterior): 3470 ng Equivalents ^14C-F6H8/g
  Mean concentration of radioactivity, Tears: 103000 ng Equivalents ^14C-F6H8/g
8 h after last dose
  Mean concentration of radioactivity, Conjunctiva (bulbar): 2970 ng Equivalents ^14C-F6H8/g
  Mean concentration of radioactivity, Conjunctiva (palpebral): 5160 ng Equivalents ^14C-F6H8/g
  Mean concentration of radioactivity, Cornea: 22000 ng Equivalents ^14C-F6H8/g
  Mean concentration of radioactivity, Lacrimal gland (accessory): 5100 ng Equivalents ^14C-F6H8/g
  Mean concentration of radioactivity, Lacrimal gland (main): 4650 ng Equivalents ^14C-F6H8/g
  Mean concentration of radioactivity, Meibomian glands: 52900 ng Equivalents ^14C-F6H8/g
  Mean concentration of radioactivity, Sclera (anterior): 2650 ng Equivalents ^14C-F6H8/g
  Mean concentration of radioactivity, Tears: 32200 ng Equivalents ^14C-F6H8/g
24 h after last dose
  Mean concentration of radioactivity, Conjunctiva (bulbar): 2750 ng Equivalents ^14C-F6H8/g
  Mean concentration of radioactivity, Conjunctiva (palpebral): 4410 ng Equivalents ^14C-F6H8/g
  Mean concentration of radioactivity, Cornea: 16200 ng Equivalents ^14C-F6H8/g
  Mean concentration of radioactivity, Lacrimal gland (accessory): 3480 ng Equivalents ^14C-F6H8/g
  Mean concentration of radioactivity, Lacrimal gland (main): 3630 ng Equivalents ^14C-F6H8/g
  Mean concentration of radioactivity, Meibomian glands: 45500 ng Equivalents ^14C-F6H8/g
  Mean concentration of radioactivity, Sclera (anterior): 2410 ng Equivalents ^14C-F6H8/g
  Mean concentration of radioactivity, Tears: 46800 ng Equivalents ^14C-F6H8/g
[1]
  Highest mean concentration, Meibomian glands: 222000 ng equivalents ^14C—F6H8/g
  Highest mean concentration, accessory lacrimal gland: 9280 ng equivalents ^14C—F6H8/g
  Highest mean concentration, bulbar conjunctiva: 8290 ng equivalents ^14C—F6H8/g
  Highest mean concentration, cornea: 27600 ng equivalents ^14C—F6H8/g
  Highest mean concentration, main lacrimal gland: 8890 ng equivalents ^14C—F6H8/g
  Highest mean concentration, palpebral conjunctiva: 14000 ng equivalents ^14C—F6H8/g
  Highest mean concentration, tears: 2330000 ng equivalents ^14C—F6H8/g
Multiple vs single dose scheme
  Ocular tissue concentrations, multiple compared to single topical ocular administration: higher concentrations
